Laboratory results taken from patent US20240277677A1, “SALT FORM AND CRYSTAL FORM THEREOF OF SULFONYLUREA RING SUBSTITUTED COMPOUND” (priority 2022, published 2024).
Read-outs that look alike come from different tables or passages of the source.

What was measured:
[1] = test system: Escherichia coli ATCC 25922; test: Spontaneous drug resistance mutation rate (FOR); assay type: cell-based; settings: for Drug resistance frequency (24 h) / Drug resistance frequency (48 h) / Drug resistance frequency (72 h): selected total colony count 2.60E+08 CFU
Description: Escherichia coli ATCC 25922 was used to carry out a micro-liquid dilution method according to the Institute of Clinical and Laboratory Standard (CLSI) requirements, the colony for selection with a total colony count of 2.60E+08CFU in Colony-Forming Units (CFU) was selected, […], 4, 8, 16, 32-fold of minimum inhibitory concentration (MIC), and the drug resistance frequency was calculated.

[2] = Solid stability study of the crystal form A (high temperature, high humidity, light; XRPD, appearance, content, related substances); assay type: physicochemical
[3] = Stability test of the crystal form A in different solvents (suspension 2 days, crystal form test); assay type: physicochemical; settings: for Result (crystal form): 20~30° C., 2 days
[4] = Pharmacokinetics study in rats in vivo, intravenous administration; parameters: species or system SD male rats; settings: for AUC(0-t) / C0 / clearance / half-life / Vd: Sprague-Dawley (SD), rat, plasma, SD male rats, dissolved in saline; for AUC(0-t): read-out: AUC0-last Area under plasma concentration-time curve; for C0: read-out: C0 Initial concentration; for clearance: read-out: Cl Clearance rate; for half-life: read-out: T1/2 Half-life period (converted); for Vd: read-out: Vdss Apparent volume of distribution
Description: The pharmacokinetic characteristics in rodents after intravenous administration of the compound was tested with standard scheme. Specifically, SD male rats at the age of 7-10 weeks were administered intravenously with the candidate compound in the experiment. The compound was dissolved in salt water to prepare a clear solution. The plasma samples are collected and analyzed by LC-MS/MS, and the pharmacokinetic parameters were calculated.

[5] = test system: Klebsiella pneumoniae ATCC-BAA 2470 (NDM+); test: Drug efficacy in thigh muscle infection model in vivo (immunodeficient CD-1 female mice); settings: for Average CFU of Mouse (bacterial load of thigh muscle tissue): end point 26 h
Description: 78 CD-1 female mice were divided into 26 cages, 3 mice per cage. The day of infection is counted as the 0 day.
150 mg/kg immunosuppressant cyclophosphamide was intraperitoneally injected on Day-4, and 100 mg/kg immunosuppressant cyclophosphamide was intraperitoneally injected again on Day-1 to obtain immunodeficient mice.
The strain Klebsiella pneumoniae ATCC-BAA 2470 (NDM+) was recovered on an MHA plate on Day-1. The recovered colonies were picked and dissolved in sterile saline to prepare a bacterial solution with a concentration of 5.95E+07 CFU/mL for use in mouse thigh muscle infection. The infection starting time was counted as 0 h, and 100μL of bacterial solution is injected into the thigh muscle of each mouse at 0 h, that is, the inoculation amount is 5.95E+06 CFU/mouse. 2 h after infection, the drugs were administered according to the experimental scheme. […] The mice in the 1st to 4th cage were administered at a total daily dose of 1600 mg/kg, the mice in the 5th to 8th cage were administered at a total daily dose of 480 mg/kg, the mice in the 9th to 12th cage were administered at a total daily dose of 160 mg/kg, the mice in the 13th to 16th cage were administered at a total daily dose of 48 mg/kg, the mice in the 17th to 20th cage were administered at a total daily dose of 16 mg/kg, the mice in the 21th to 24th cage were administered at a total daily dose of 4.8 mg/kg, and each dosage group was administered separately in four different dosage dividing manners, which were q3 h, q6 h, q12 h and q24 h separately. • (3) 26 h after infection: The endpoint of the experiment was at 26 h after infection, the thigh muscle tissue of the mice of the 1st to 26th cage was taken and placed in 10 mL sterile saline, the tissue was homogenized by a homogenizer, and the homogenate was dotted on a plate with gradient dilution, two duplications for each mouse. The bacterial load of the thigh muscle tissue of the mice was counted, and for the experimental results see Table 15.

[6] = Exploration of other crystal forms by changing crystallization conditions; assay type: physicochemical
Excerpt: Purpose: Explore obtaining other crystal forms by changing crystallization conditions.

[7] = Light 10 days (visible light intensity 5000 lux and ultraviolet intensity 90 μw/cm^2, open)
[8] = intravenous injection at 100 mg/kg
[9] = intravenous injection at 300 mg/kg

NC[C@@H]1CN(C[C@@H]2[C@H](NC(=O)/C(=N\OC3(C(=O)O)CC3)c3csc(N)n3)C(=O)N2S(=O)O)S(=O)(=O)N1 (stereo in doubt)
Drug resistance rate (conclusion) ([1]; 2-fold of MIC, E. coli ATCC 25922): lower drug resistance rate
Drug resistance frequency (24 h) ([1]; 2 × MIC): <3.85E−09
Drug resistance frequency (48 h) ([1]; 2 × MIC): <3.85E−09
Drug resistance frequency (72 h) ([1]; 2 × MIC): =3.85E−09
Drug resistance frequency (24 h) ([1]; 4 × MIC): <3.85E−09
Drug resistance frequency (48 h) ([1]; 4 × MIC): <3.85E−09
Drug resistance frequency (72 h) ([1]; 4 × MIC): <3.85E−09
Drug resistance frequency (24 h) ([1]; 8 × MIC): <3.85E−09
Drug resistance frequency (48 h) ([1]; 8 × MIC): <3.85E−09
Drug resistance frequency (72 h) ([1]; 8 × MIC): <3.85E−09
Drug resistance frequency (24 h) ([1]; 16 × MIC): <3.85E−09
Drug resistance frequency (48 h) ([1]; 16 × MIC): <3.85E−09
Drug resistance frequency (72 h) ([1]; 16 × MIC): <3.85E−09
Drug resistance frequency (24 h) ([1]; 32 × MIC): <3.85E−09
Drug resistance frequency (48 h) ([1]; 32 × MIC): <3.85E−09
Drug resistance frequency (72 h) ([1]; 32 × MIC): <3.85E−09
Purity % ([2]; 0 day): 85.6%
Total impurities % ([2]; 0 day): 14.4%
Purity % ([2]; 25° C./75% RH-5 days (open)): 87.4%
Total impurities % ([2]; 25° C./75% RH-5 days (open)): 12.6%
Purity % ([2]; 25° C./75% RH-10 days (open)): 85.4%
Total impurities % ([2]; 25° C./75% RH-10 days (open)): 14.6%
Related substances and contents (conclusion) ([2]; 60° C., 25° C./75% RH and light conditions): did not change significantly
Purity % ([2]; 60° C.-5 days (open)): 87.3%
Total impurities % ([2]; 60° C.-5 days (open)): 12.7%
Purity % ([2]; 60° C.-10 days (open)): 86.6%
Total impurities % ([2]; 60° C.-10 days (open)): 13.4%
Purity % [2, 7]: 86.4%
Total impurities % [2, 7]: 13.6%
Purity % ([2]; Light control -10 days): 86.8%
Total impurities % ([2]; Light control -10 days): 13.2%
Solid stability (conclusion) ([2]; high temperature, high humidity and light conditions): stable
Appearance (2 days) ([3]; Acetonitrile): Suspension
Appearance (2 days) ([3]; Acetonitrile-water(20:1)): Suspension
Appearance (2 days) ([3]; Ethanol): Suspension
Appearance (2 days) ([3]; Ethanol-water(20:1)): Suspension
Appearance (2 days) ([3]; Ethyl acetate): Suspension
Appearance (2 days) ([3]; Isopropanol): Suspension
Appearance (2 days) ([3]; Isopropanol-water(20:1)): Suspension
Appearance (2 days) ([3]; Tetrahydrofuran): Suspension
Result (crystal form) ([3]; suspended in Acetonitrile): Crystal form A
Result (crystal form) ([3]; suspended in Acetonitrile-water(20:1)): Crystal form A
Result (crystal form) ([3]; suspended in Ethanol): Crystal form A
Result (crystal form) ([3]; suspended in Ethanol-water(20:1)): Crystal form A
Result (crystal form) ([3]; suspended in Ethyl acetate): Crystal form A
Result (crystal form) ([3]; suspended in Isopropanol): Crystal form A
Result (crystal form) ([3]; suspended in Isopropanol-water(20:1)): Crystal form A
Result (crystal form) ([3]; suspended in Tetrahydrofuran): Crystal form A
Stability in solvents (conclusion) ([3]; variety of solvents): stable
AUC(0-t) [4, 8]: 166 µM·h
C0 [4, 8]: 581 µM
clearance [4, 8]: 17.2 mL/min/kg
half-life [4, 8]: 18.7 min
Vd [4, 8]: 0.378 L/kg
AUC(0-t) [4, 9]: 467 µM·h
C0 [4, 9]: 1380 µM
clearance [4, 9]: 18.4 mL/min/kg
half-life [4, 9]: 21.7 min
Vd [4, 9]: 0.463 L/kg
Exposure versus dose (conclusion) ([4]; rats, intravenous): increases linearly
Average CFU of Mouse (bacterial load of thigh muscle tissue) ([5]; group 1: total daily dose 1600 mg/kg, single dose 60 mg/kg, q3h s.c.): 2.18E+06 CFU/Mouse
Average CFU of Mouse (bacterial load of thigh muscle tissue) ([5]; group 2: total daily dose 1600 mg/kg, single dose 400 mg/kg, q6h s.c.): 2.45E+06 CFU/Mouse
Average CFU of Mouse (bacterial load of thigh muscle tissue) ([5]; group 3: total daily dose 1600 mg/kg, single dose 800 mg/kg, q12h s.c.): 3.80E+08 CFU/Mouse
Average CFU of Mouse (bacterial load of thigh muscle tissue) ([5]; group 4: total daily dose 1600 mg/kg, single dose 1600 mg/kg, q24h s.c.): 9.02E+09 CFU/Mouse
Average CFU of Mouse (bacterial load of thigh muscle tissue) ([5]; group 5: total daily dose 480 mg/kg, single dose 60 mg/kg, q3h s.c.): 2.20E+06 CFU/Mouse
Average CFU of Mouse (bacterial load of thigh muscle tissue) ([5]; group 6: total daily dose 480 mg/kg, single dose 120 mg/kg, q6h s.c.): 2.18E+08 CFU/Mouse
Average CFU of Mouse (bacterial load of thigh muscle tissue) ([5]; group 7: total daily dose 480 mg/kg, single dose 240 mg/kg, q12h s.c.): 2.88E+09 CFU/Mouse
Average CFU of Mouse (bacterial load of thigh muscle tissue) ([5]; group 8: total daily dose 480 mg/kg, single dose 480 mg/kg, q24h s.c.): 8.73E+09 CFU/Mouse
Average CFU of Mouse (bacterial load of thigh muscle tissue) ([5]; group 9: total daily dose 160 mg/kg, single dose 20 mg/kg, q3h s.c.): 2.10E+06 CFU/Mouse
Average CFU of Mouse (bacterial load of thigh muscle tissue) ([5]; group 10: total daily dose 160 mg/kg, single dose 40 mg/kg, q6h s.c.): 4.67E+08 CFU/Mouse
Average CFU of Mouse (bacterial load of thigh muscle tissue) ([5]; group 11: total daily dose 160 mg/kg, single dose 80 mg/kg, q12h s.c.): 7.88E+09 CFU/Mouse
Average CFU of Mouse (bacterial load of thigh muscle tissue) ([5]; group 12: total daily dose 160 mg/kg, single dose 160 mg/kg, q24h s.c.): 1.22E+10 CFU/Mouse
Average CFU of Mouse (bacterial load of thigh muscle tissue) ([5]; group 13: total daily dose 48 mg/kg, single dose 6 mg/kg, q3h s.c.): 4.07E+06 CFU/Mouse
Average CFU of Mouse (bacterial load of thigh muscle tissue) ([5]; group 14: total daily dose 48 mg/kg, single dose 12 mg/kg, q6h s.c.): 1.57E+09 CFU/Mouse
Average CFU of Mouse (bacterial load of thigh muscle tissue) ([5]; group 15: total daily dose 48 mg/kg, single dose 24 mg/kg, q12h s.c.): 8.70E+09 CFU/Mouse
Average CFU of Mouse (bacterial load of thigh muscle tissue) ([5]; group 16: total daily dose 48 mg/kg, single dose 48 mg/kg, q24h s.c.): 1.32E+10 CFU/Mouse
Average CFU of Mouse (bacterial load of thigh muscle tissue) ([5]; group 17: total daily dose 16 mg/kg, single dose 2 mg/kg, q3h s.c.): 7.77E+07 CFU/Mouse
Average CFU of Mouse (bacterial load of thigh muscle tissue) ([5]; group 18: total daily dose 16 mg/kg, single dose 4 mg/kg, q6h s.c.): 2.92E+09 CFU/Mouse
Average CFU of Mouse (bacterial load of thigh muscle tissue) ([5]; group 19: total daily dose 16 mg/kg, single dose 8 mg/kg, q12h s.c.): 6.93E+09 CFU/Mouse
Average CFU of Mouse (bacterial load of thigh muscle tissue) ([5]; group 20: total daily dose 16 mg/kg, single dose 16 mg/kg, q24h s.c.): 1.44E+10 CFU/Mouse
Average CFU of Mouse (bacterial load of thigh muscle tissue) ([5]; group 21: total daily dose 4.8 mg/kg, single dose 0.6 mg/kg, q3h s.c.): 7.22E+08 CFU/Mouse
Average CFU of Mouse (bacterial load of thigh muscle tissue) ([5]; group 22: total daily dose 4.8 mg/kg, single dose 1.2 mg/kg, q6h s.c.): 4.55E+09 CFU/Mouse
Average CFU of Mouse (bacterial load of thigh muscle tissue) ([5]; group 23: total daily dose 4.8 mg/kg, single dose 2.4 mg/kg, q12h s.c.): 7.60E+09 CFU/Mouse
Average CFU of Mouse (bacterial load of thigh muscle tissue) ([5]; group 24: total daily dose 4.8 mg/kg, single dose 4.8 mg/kg, q24h s.c.): 1.27E+10 CFU/Mouse
Antibacterial effect in vivo (conclusion) ([5]; mouse thigh muscle infection, subcutaneous, 26 h after infection): significant antibacterial effect in vivo
Effect of shortening the administration interval (conclusion) ([5]; same daily dose, q3 h, q6 h, q12 h, q24 h): significantly improve the efficacy in vivo
Dose-effect relationship (conclusion) ([5]; total daily dose 4.8 to 1600 mg/kg): significant
Result of crystallization (exploration of other crystal forms) ([6]; EtOH:H2O = 10:1, first dissolved and then cooled down): No crystal was obtained
Result of crystallization (exploration of other crystal forms) ([6]; EtOH:H2O = 20:1, first dissolved and then cooled down): No crystal was obtained
Result of crystallization (exploration of other crystal forms) ([6]; IPA:H2O = 10:1, first dissolved and then cooled down): No crystal was obtained
Result of crystallization (exploration of other crystal forms) ([6]; IPA:H2O = 20:1, first dissolved and then cooled down): No crystal was obtained
Result of crystallization (exploration of other crystal forms) ([6]; THF:H2O = 10:1, first dissolved at 40° C., cooled to 0~5° C.): No crystal was obtained
Result of crystallization (exploration of other crystal forms) ([6]; acetone:H2O = 20:1, first dissolved and then cooled down): No crystal was obtained
Other crystal forms obtained (conclusion) ([6]; dissolved in different aqueous systems and then crystallized): no other crystal forms were obtained
